Measurements reported in US20100055217A1, “COSMETIC COMPOSITION COMPRISING A COMBINATION OF LIPOCHROMAN-6 AND AN EXTRACT OF LONGOZA, AND ITS USE” (LVMH RECHERCHE, priority 2008, published 2010).

Tested on: oxidized proteins of normal human keratinocytes (NHK)
Assay: Level of oxidized proteins of epidermal cells (DNPH/anti-DNP immunostaining, confocal image analysis)
Format: cell-based
Conditions: for Proportion of oxidized proteins/cell, KHN 0002: NHK donor KHN 0002; for Proportion of oxidized proteins/cell, KHN 0002 / Proportion of oxidized proteins/cell, KHN 9726: 48 h treatment; for Proportion of oxidized proteins/cell, KHN 9726: NHK donor KHN 9726; for DNP marking/no. of cells / DNP marking/surface area measured / Surface area of DNP marking: NHK; for DNP marking/no. of cells / DNP marking/surface area measured / Surface area of DNP marking / Proportion of oxidized proteins/cell, Average / Reduction %/control: 48 h; for Proportion of oxidized proteins/cell, Average / Reduction %/control: average of both NHK donors; for Reduction %/control: vs control excipient
Experimental: Normal human keratinocytes (NHK) isolated from two samplings of humans skin from two different donors, and referred to hereinafter as KHN002 and KHN9726, are cultured in T75 flasks in complete KSFM medium (Invitrogen GIBCO) at 37° C. and 5% of CO2, and are seeded at 20 000 cells per well in 8-well Lab-Tek II culture systems (Nalge Nunc International).
After 48 h of culture, the cells are treated with the treatment solutions (see below).
A solution of Lipochroman-6 at 0.004% by weight per volume (w/v) is prepared (solution A).
This is done by dissolving 20 mg of lipochroman-6 powder (supplier: Lipotec) in 2 ml of ethanol (solution at 10 mg/ml). This solution is diluted (40 μl of the stock solution in 10 ml of KSFm medium) to give solution A.
Furthermore, a solution of Longoza at 0.2% w/v in the KSFMc medium is prepared (solution B), from the 1% w/v solution prepared in accordance with step g) of Example 1. The 1% w/v Longoza extract solution is diluted ([…] of the 1% w/v solution in 6 ml of KSFm medium) to give said solution B.
The treatment solutions are prepared by diluting solutions A and B, prepared above, in the KSFMc medium to give the correct percentage of each of the actives of the combination (% expressed by weight per volume).
Each treatment is carried out on 3 wells per cell type. • control: KSFMc • solvent control: ethanol 0.1% in KSFMc medium • lipochroman 0.001% • lipochroman 0.002% • lipochroman 0.001%+Longoza 0.05% • lipochroman 0.001%+Longoza 0.1% • lipochroman 0.002%+Longoza 0.05% • lipochroman 0.002%+Longoza 0.1%
After 48 hours of treatment, the KSFM medium is drawn off.
The cells are rinsed with PBS (PBS Tablets, Invitrogen GIBCO), and then fixed on slides by means of formaline (Formalin Solution 10% Neutral Buffered, Sigma) for 10 minutes at ambient temperature. After rinsing with PBS, the culture chambers are filled with a 0.1% Triton solution (Triton X-100, Sigma) for 10 minutes and then rinsed with PBS.
The culture chambers are subsequently disassembled and the slides are immersed in a solution of 2,4-dinitrophenylhydrazine (300 mg of DNPH (Fluka) in an ethanol/sulphuric acid mixture (98.5 ml/1.5 ml)) for 30 minutes.
The DNPH reacts with the carbonyl groups of the oxidized proteins in accordance with the following reaction:
The slides are rinsed ten times with PBS. The cells are then covered with a solution of PBS/BSA at 1% (10 g/l) by weight at ambient temperature for 30 minutes.
The dinitrophenyl (DNP) groups bound to the oxidized proteins are recognized by a primary anti-DNP antibody.
For this purpose, in a first step, the slides are covered with a solution of primary antibody (monoclonal mouse anti-DNP antibody, Sigma), diluted at 1/500 th in a PBS/BSA 1% solution, and are incubated for 60 minutes at ambient temperature in an oven, then rinsed with a PBS-Tween0.1% (Tween20, Merck) solution.
In a second step, the cells are covered with a solution of secondary antibody (Alexafluor 546 Goat anti-mouse, Invitrogen) in a PBS/BSA 1% by weight solution, and are incubated in the absence of light for 60 minutes. The slides are subsequently rinsed with PBS-Tween and then with PBS.
In a third step, a few drops of aqueous mounting medium (Fluorescent Mounting Medium, DAKO, S 3023) are applied to the slides, which are subsequently stored at 4° C. in the dark.
The photographs are taken by confocal microscopy (Axioplan microscope, Zeiss, and Krypton-Argon Laser, BioRad) with the aid of the LaserSharp 2000 software (BioRad). For each condition, three photos are taken with the x40 lens, with the same acquisition parameters (gain, iris).
The excitation wavelength of the fluorochrome is 546 nm and the emission wavelength is 573 nm.
In practice, an exciting fluorescence at […] is applied by the confocal laser to the cells. The fluorochrome Alexafluor 546, which represents the oxidized proteins, emits fluorescence at 573 nm, which is recovered by a specific filter and can be observed. […]

COc1cc2c(cc1O)CCC(C)(C)O2 [lipochroman-6]
Proportion of oxidized proteins/cell, KHN 0002 (lipochroman-6 0.001% w/v): 76.3 | Proportion of oxidized proteins/cell, KHN 0002 (lipochroman-6 0.002% w/v): 60.9 | Proportion of oxidized proteins/cell, KHN 9726 (lipochroman-6 0.001% w/v): 88 | Proportion of oxidized proteins/cell, KHN 9726 (lipochroman-6 0.002% w/v): 43 | DNP marking/no. of cells (Lipochroman 0.001%): 82.1 | DNP marking/surface area measured (Lipochroman 0.001%): 28.7% | Surface area of DNP marking (Lipochroman 0.001%): 3776 | DNP marking/no. of cells (Lipochroman 0.002%): 52.0 | DNP marking/surface area measured (Lipochroman 0.002%): 18.4% | Surface area of DNP marking (Lipochroman 0.002%): 2415 | Proportion of oxidized proteins/cell, Average (lipochroman-6 0.001% w/v): 82.1 | Reduction %/control (lipochroman-6 0.001% w/v): −19.43% | Proportion of oxidized proteins/cell, Average (lipochroman-6 0.002% w/v): 52 | Reduction %/control (lipochroman-6 0.002% w/v): −48.97%
